Entries after “also recorded” stand apart in the source; their conditions may differ.
Key:
[1] = tested on: BLM-induced pulmonary fibrosis model mice; experiment: Bleomycin-induced lung injury: lung histopathology (Masson's Trichrome, Ashcroft score, HE); assay type: in vivo
Method: Bleomycin-Induced Lung Injury. Lung inflammation is induced in female mice by a single intratracheal administration of bleomycin. Twenty mice are divided into two groups. From Day −2 to Day 6, one group is administered vehicle and the other is administered test drug, such as solithromycin orally at a dose of 100 mg/kg. It is to be understood herein that 100 mg/kg in mice is generally considered to be equivalent to a 450-500 mg, such as 480 mg, dose in humans. Animals are sacrificed on Day 7.
Pathogen-free 7 weeks old female C57BL/6J mice are obtained from CLEA Japan (Tokyo, Japan) and allowed to acclimate at least 6 days. On day 0, twenty mice are induced to develop pulmonary fibrosis by a single intratracheal administration of bleomycin sulphate (BLM, Nippon Kayaku, Japan) in 0.9% saline in a volume of 50 μL per animal using a Microsprayer® (Penn-Century, USA). Individual body weight is measured daily during the experiment period. Survival, clinical signs and behavior of mice is monitored daily.
Solithromycin Reduces Inflammation In Mice Caused By Bleomycin-Induced Lung Injury. […]
Histopathological Analyses. […] The degree of pulmonary fibrosis was evaluated using the Ashcroft score (4) for the quantitative histological analysis.

[2] = tested on: STAM mice; experiment: STAM model: serum biochemistry (HPLC); assay type: in vivo
Method: NASH-HCC (STAM™) Model. C57BL/6 (15-day-pregnant female) mice are obtained from Charles River Laboratories Japan (Kanagawa, Japan). Male pups are selected for the study. NASH is induced in male mice by a single subcutaneous injection of 200 μg streptozotocin (STZ, Sigma-Aldrich, USA) solution 2 days after birth, followed by feeding a HFD (57 kcal % fat, cat#: HFD32, CLEA Japan, Japan) beginning at 4 weeks of age. At 5 weeks of age, mice are divided into a control group and one or more treated group (generally 8 mice per group). Animals are sacrificed at 9 weeks of age, and biochemical, histological, and gene expression analyses are performed.
During weeks 5-9 (starting at day 35±2), test compound is administered (generally orally) at various doses diluted to 10 mL/kg and according to various dosing protocols to treatment groups (8 mice each) while a second group (8 mice) is administered vehicle only. Animals are sacrificed at 9 weeks.
Measurement of serum biochemistry. For serum biochemistry, blood is collected in polypropylene tubes without anticoagulant and incubated at room temperature for 30 minutes, at 4° C. for 1 hour, and then centrifuged at 1,000×g for 15 minutes at 4° C. The supernatant is collected and stored at −80° C. until use. Serum triglyceride, HDL-cholesterol, LDL-cholesterol, VLDL-cholesterol, and chylomicron ([…]) are quantified by HPLC at Skylight Biotech Inc. (Japan).
Illustrative dose response test groups. Group 1-Normal. Eight normal mice are fed with a normal diet ad libitum without any treatment until 9 weeks of age. Group 2-Vehicle. Eight NASH mice are orally administered vehicle (0.5% w/v methylcellulose+0.2% Tween®80) in a volume of 10 mL/kg twice daily from 5 to 9 week of age. Group 3-solithromycin 5 mg/kg. Eight NASH mice are orally administered vehicle supplemented with solithromycin at a dose of 5 mg/kg in the morning and the vehicle in the evening (5 mg/kg/day) from 5 to 9 weeks of age. Group 4-solithromycin 10 mg/kg. Eight NASH mice are orally administered vehicle supplemented with solithromycin at a dose of 10 mg/kg twice daily (20 mg/kg/day) from 5 to 9 weeks of age. Group 5-solithromycin 25 mg/kg. Eight NASH mice are orally administered vehicle supplemented with solithromycin at a dose of 25 mg/kg twice daily (50 mg/kg/day) from 5 to 9 weeks of age. Group 6-solithromycin 50 mg/kg. Eight NASH mice are orally administered vehicle supplemented with solithromycin at a dose of 50 mg/kg once daily (50 mg/kg/day) from 5 to 9 weeks of age.

[3] = 5 mg/kg q.d., listed as SOLI, 5 mg/kg
[4] = 10 mg/kg b.i.d., listed as SOLI, 10 mg/kg
[5] = 25 mg/kg b.i.d., listed as SOLI, 25 mg/kg

## CC[C@H]1OC(=O)[C@@](C)(F)C(=O)[C@H](C)[C@@H](O[C@@H]2O[C@H](C)C[C@H](N(C)C)[C@H]2O)[C@](C)(OC)C[C@@H](C)C(=O)[C@H](C)[C@H]2N(CCCCn3cc(-c4cccc(N)c4)nn3)C(=O)O[C@]12C [solithromycin]
[1]
  HE staining: alveolar wall thickening, diffuse alveolar destruction, inflammatory cell infiltration vs vehicle: no obvious differences
[1]; vehicle 1.6±0.2
  Ashcroft score: 1.4±0.5
[2]; 5 mg/kg q.d., 5 mg/kg
  Serum HDL-cholesterol: no statistically significant differences
  Serum VLDL-cholesterol: no statistically significant differences
  Serum chylomicron: no statistically significant differences
  Serum triglyceride: no statistically significant differences
[2]; [3]
  Serum HDL-cholesterol: 88.4 ± 14.2 mg/dL
  Serum VLDL-cholesterol: 9.8 ± 5.3 mg/dL
  Serum chylomicron: 1.5 ± 1.2 mg/dL
  Serum triglyceride: 133.8 ± 110.1 mg/dL
[2]; 10 mg/kg b.i.d., 10 mg/kg
  Serum HDL-cholesterol: no statistically significant differences
  Serum VLDL-cholesterol: no statistically significant differences
  Serum chylomicron: no statistically significant differences
  Serum triglyceride: no statistically significant differences
[2]; [4]
  Serum HDL-cholesterol: 89.3 ± 21.5 mg/dL
  Serum VLDL-cholesterol: 9.7 ± 3.8 mg/dL
  Serum chylomicron: 1.4 ± 0.6 mg/dL
  Serum triglyceride: 116.5 ± 58.8 mg/dL
[2]; 25 mg/kg b.i.d., 25 mg/kg
  Serum HDL-cholesterol: no statistically significant differences
  Serum VLDL-cholesterol: significantly decreased; also recorded: Statistically significant reduced
  Serum chylomicron: significantly decreased
  Serum triglyceride: significantly decreased; also recorded: Statistically significant reduced
[2]; [5]
  Serum HDL-cholesterol: 97.9 ± 26.3 mg/dL
  Serum VLDL-cholesterol: 5.4 ± 3.2 mg/dL
  Serum chylomicron: 0.7 ± 0.4 mg/dL
  Serum triglyceride: 46.8 ± 47.8 mg/dL

— patent US20170165286A1, “COMPOSITIONS AND METHODS FOR TREATING DIABETES AND LIVER DISEASES” (Cempra Pharmaceuticals, Inc., priority 2014, published 2017)
